Consider two molecules from US10029014B2, “Synthesis of novel asymmetric bow-tie PAMAM dendrimer-based conjugates for tumor-targeting drug delivery” (priority 2013, dated 2018).

Like-named read-outs stand apart in the source and are kept apart here.

For one series, the system named is ID-8. In words: Cytotoxicity assay, MTT method, ID-8 cells. Particulars: read-out: Cytotoxicity (IC50, nM) ID-8. On the technique in general: Tetrazolium dyes change colour on reduction, which living cells bring about.
The subject of the next series is MX-1. In words: Cytotoxicity assay, MTT method, MX-1 cells. Particulars: read-out: Cytotoxicity (IC50, nM) MX-1.
The test system of the next series is WI-38. In words: Cytotoxicity assay, MTT method, WI-38 cells. The note with it: read-out: Cytotoxicity (IC50, nM) WI-38; 72 hours of drug exposure at 37° C. under 5% CO2.
Another series is described as follows: in vitro. Particulars: human.
Where [1] appears, read: 72 hours of drug exposure at 37° C. under 5% CO2.

For `CC(=O)O[C@@]12CO[C@@H]1C[C@H](O)[C@@]1(C)C(=O)[C@H](OC(=O)C3CC3)C3=C(C)[C@@H](OC(=O)[C@H](O)[C@H](C=C(C)C)NC(=O)OC(C)(C)C)C[C@@](O)([C@@H](OC(=O)c4ccccc4)[C@H]21)C3(C)C` [SB-T-1214], the IC50 was found to be 1.89 nM in the series on ID-8 (setting [1]), 2.9 nM with MX-1 (setting [1]) and 4.14 nM in the series on WI-38.

In the case of `CC(=O)O[C@H]1C(=O)[C@@]2(C)[C@H]([C@H](OC(=O)c3ccccc3)[C@]3(O)C[C@H](OC(=O)[C@H](O)[C@@H](NC(=O)c4ccccc4)c4ccccc4)C(C)=C1C3(C)C)[C@]1(OC(C)=O)CO[C@@H]1C[C@@H]2O` [Paclitaxel], the IC50 at 72 h in the series “in vitro” came to 175 nM. For the same molecule, the half-inhibitory concentration (IC50) in the series with ID-8 (Mus musculus, ID8, 72 h) stood at 21.2 nM; in the series with MX-1 (Homo sapiens, MX1, 72 h), 3.83 nM.

The IC50 is the concentration that gives 50% inhibition.
